For the experiment, the system named is primary neuronal cultures from embryonic rat brains. Put plainly: Rat oscillation assay (FLIPR, neuronal calcium oscillations). The experiment is classed as cell-based. Particulars: Rattus norvegicus. A digest of the protocol: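 Cortical neurons from E18 Wistar rat embryos, cultured 8–10 days at high density, loaded with 1 μM Fluo-8 AM; calcium oscillations recorded by FLIPR once per second in Mg-free HBSS with 2 mM CaCl2, 20 mM HEPES, pH 7.4. Two acquisitions ("Acute", 500 sec, compound added at 250 sec; "20 min"), ± Kv7 blocker XE-991.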

[1] abbreviates: 20 min, AUC of fluorescence measured 20 min after compound addition, read-out: FLIPR: IC50 [nM] 20 min.
The mark [2] stands for this setting: Acute phase, ratio of AUC fluorescence before and after compound addition, read-out: FLIPR: IC50 [nM] acute.

The structures appear in SMILES notation. Read-outs that look alike come from different tables or passages of the source.

Regarding `O=C(NC1CC2(CC2)C1)N[C@@H](CO)c1cccc(C(F)(F)F)c1` (single isomer, unassigned) [Example 186], the IC50 (commonly the point on the concentration scale where inhibition reaches its midpoint) under setting [1] amounted to 40 nM and the IC50 under setting [2] was 20 nM.

As for `O=C(NCc1cc(OCC(F)(F)F)ncn1)NC1CC2(CCC2)C1` [Example 59, 1-Spiro[3.3]hept-2-yl-3-[6-(2,2,2-trifluoro-ethoxy)-pyrimidin-4-ylmethyl]-urea], the IC50 is, setting by setting: under setting [1], 61 nM; under setting [2], 45 nM.

As to `O=C(NCc1cccc(C(F)(F)F)c1)NC1CC2(CC2)C1` [Example 2, 1-Spiro[2.3]hex-5-yl-3-(3-trifluoromethyl-benzyl)-urea], the IC50 turned out to be 86 nM under setting [1] and 63 nM under setting [2].

The record behind these values is patent US20230136562A1, “SPIROUREA DERIVATIVES” (Idorsia Pharmaceuticals Ltd, priority 2020, published 2023).
